{"source": "patent US20100022476A1", "about": "“PYRAZOLYLAMINO SUBSTITUTED QUINAZOLES FOR THE TREATMENT OF CANCER” (ASTRAZENECA AB, priority 2004, published 2010)", "key": {"[1]": {"system": "SW620 human colon tumour cells", "experiment": "In vitro cell phenotype and substrate phosphorylation assay (phosphohistone H3)", "assay_type": "cell-based", "settings": "SW-620, 24 hours of treatment, read-out: EC50 for inhibition of phosphohistone H3 levels", "experimental": "(c) In Vitro Cell Phenotype and Substrate Phosphorylation Assay\nThis assay is used to determine the cellular effects of compounds on SW620 human colon tumour cells in vitro. Compounds typically cause inhibition of levels of phosphohistone H3 and an increase in the nuclear area of the cells.\n10^4 SW620 cells per well were plated in 100 μl DMEM media (containing 10% FCS and 1% glutamine) (DMEM is Dulbecco's Modified Eagle's Medium (Sigma D6546)) in costar 96 well plates and left overnight at 37° C. and 5% CO2 to adhere. The cells were then dosed with compound diluted in media (50 μl is added to each well to give 0.00015μ-1 μM concentrations of compound) and after 24 hours of treatment with compound, the cells were fixed.\nThe cells were first examined using a light microscope and any cellular changes in morphology were noted. 100 μl of 3.7% formaldehyde was then added to each well, and the plate was left for at least 30 minutes at room temperature. Decanting and tapping the plate on a paper towel removed the fixative and plates were then washed once in PBS (Dulbecco's Phosphate Buffered Saline (Sigma D8537)) using an automated plate washer. […]\nThe next day, the antibody was tipped off and the plates were washed twice with PBS. […] 100 μl PBS was added to each well and the plates were sealed ready to analyse. […]"}, "[2]": {"system": "drug-resistant MCF7-ADR human breast tumour cells", "experiment": "In vitro drug-resistant cell phenotype and substrate phosphorylation assay (phosphohistone H3)", "assay_type": "cell-based", "settings": "NCI/ADR-RES, MCF7-ADR cells overexpressing drug-resistant proteins, read-out: EC50 for inhibition of phosphohistone H3 levels", "experimental": "(d) In Vitro Drug-Resistant Cell Phenotype and Substrate Phosphorylation Assay.\nThis assay is used to determine the cellular effects of compounds on drug-resistant MCF7-ADR human breast tumour cells in vitro.\nCompounds typically cause inhibition of levels of phosphohistoneH3 and an increase in the nuclear area of treated cells.\n0.8×10^4 MCF7-ADR cells per well were plated in 100 μl DMEM media (containing 10% FCS (foetal calf serum) and 1% glutamine) in costar 96 well plates and left overnight at 37° C. and 5% CO2 to adhere.\nAll other procedures are identical to those for the above assay using SW620 cells."}, "[3]": {"experiment": "Plasma protein binding assay (equilibrium dialysis)", "assay_type": "in vitro ADME", "settings": "human plasma, 20 μM compound, dialysed 18 hours at 37° C.", "experimental": "(e) Plasma Protein Binding Assay\nPlasma protein binding was measured using the equilibrium dialysis technique. Compound was added to human plasma to a concentration of 20 μM and dialysed with isotonic phosphate/sodium chloride buffer for 18 hours at 37° C. The plasma and buffer solutions on each side of the dialysis membrane were analysed using a generic LCUVMS (Waters 2795 HPLC with Micromass ZQ mass spectrometer) and the percentage of free compound in 100% plasma was determined."}}}
{"molecule": "COc1cc(OCCN(C)CCO)c2c(Nc3cc(CC(=O)Nc4cccc(F)c4F)[nH]n3)ncnc2c1", "note": "[Compound 9, N-(2,3-difluorophenyl)-2-{3-[(5-{2-[(2-hydroxyethyl)(methyl)amino]ethoxy}-7-methoxyquinazolin-4-yl)amino]-1H-pyrazol-5-yl}acetamide]", "values": [{"measurement": "EC50", "setting": "[1]", "result": 7.6, "unit": "nM"}, {"measurement": "EC50", "setting": "[2]", "result": 400, "unit": "nM"}, {"measurement": "percentage of free compound in 100% plasma", "setting": "[3]", "result": 3.9, "unit": "%"}]}
